Laboratory results published in ChEMBL document CHEMBL1208740, “beta-Secretase (BACE-1) inhibitory effect of biflavonoids” (Bioorg Med Chem Lett, 2010).

These molecules were tested against Beta-secretase 1 (Homo sapiens, UniProt P56817) (assay: Inhibition of BACE1 after 60 mins by FRET assay).
Chain of Beta-secretase 1 (P56817 whole entry): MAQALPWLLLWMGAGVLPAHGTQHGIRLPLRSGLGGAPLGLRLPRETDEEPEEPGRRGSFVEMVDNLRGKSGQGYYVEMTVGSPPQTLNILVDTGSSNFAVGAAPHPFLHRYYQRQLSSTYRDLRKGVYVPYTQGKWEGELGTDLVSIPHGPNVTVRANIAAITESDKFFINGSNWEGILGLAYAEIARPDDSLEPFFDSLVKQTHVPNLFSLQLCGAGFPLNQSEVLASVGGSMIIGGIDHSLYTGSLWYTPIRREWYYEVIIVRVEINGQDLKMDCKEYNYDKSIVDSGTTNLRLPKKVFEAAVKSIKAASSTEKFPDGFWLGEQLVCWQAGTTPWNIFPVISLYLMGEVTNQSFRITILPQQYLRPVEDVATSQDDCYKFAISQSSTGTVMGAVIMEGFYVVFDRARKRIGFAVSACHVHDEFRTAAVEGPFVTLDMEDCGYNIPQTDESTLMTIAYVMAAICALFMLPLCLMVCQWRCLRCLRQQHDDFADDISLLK
In the case of `COc1ccc(-c2cc(=O)c3c(O)cc(O)c(-c4cc(-c5cc(=O)c6c(O)cc(OC)cc6o5)ccc4OC)c3o2)cc1` [SCIADOPITISIN], the IC50 is reported as over 10 µM.
`COc1ccc(-c2cc(=O)c3c(O)cc(OC)c(-c4cc(-c5cc(=O)c6c(O)cc(O)cc6o5)ccc4O)c3o2)cc1` [7'',4'''-dimethylamentoflavone] gave an IC50 of over 10 µM.
Work on `COc1ccc(-c2cc(=O)c3c(O)cc(O)c(-c4cc(-c5cc(=O)c6c(O)cc(O)cc6o5)ccc4OC)c3o2)cc1` [ISOGINKGETIN] yielded an IC50 of 3.01 µM.
Work on `COc1ccc(-c2cc(=O)c3c(O)cc(O)cc3o2)cc1-c1c(OC)cc(O)c2c(=O)cc(-c3ccc(O)cc3)oc12` yielded an IC50 of over 10 µM.
With `COc1cc(O)c2c(=O)cc(-c3ccc(O)c(-c4c(OC)cc(O)c5c(=O)cc(-c6ccc(O)cc6)oc45)c3)oc2c1` the IC50 was 6.25 µM.
`COc1ccc(-c2cc(=O)c3c(O)cc(O)cc3o2)cc1-c1c(O)cc(O)c2c(=O)cc(-c3ccc(O)cc3)oc12` [BILOBETIN] was tested, and the IC50 was 2.02 µM.
With `COc1cc(O)c2c(=O)cc(-c3ccc(O)cc3)oc2c1-c1cc(-c2cc(=O)c3c(O)cc(O)cc3o2)ccc1O` [SOTETSUFLAVONE] the IC50 was 1.58 µM.
In the case of `COc1ccc(-c2cc(=O)c3c(O)cc(O)c(-c4cc(-c5cc(=O)c6c(O)cc(O)cc6o5)ccc4O)c3o2)cc1` [PODOCARPUSFLAVONE A], the IC50 is reported as 0.99 µM.
`COc1ccc(-c2cc(=O)c3c(O)cc(OC)c(-c4cc(-c5cc(=O)c6c(O)cc(OC)cc6o5)ccc4OC)c3o2)cc1` showed an IC50 of over 10 µM.
`O=c1cc(-c2ccc(Oc3c(O)cc4oc(-c5ccc(O)cc5)cc(=O)c4c3O)cc2)oc2cc(O)cc(O)c12` [HINOKIFLAVONE] gave an IC50 of over 10 µM.
`COc1cc(O)c2c(=O)cc(-c3ccc(OC)c(-c4c(O)cc(O)c5c(=O)cc(-c6ccc(O)cc6)oc45)c3)oc2c1` [GINKGETIN] was tested, and the IC50 was 4.18 µM.
Work on `O=c1cc(-c2ccc(O)c(-c3c(O)cc(O)c4c(=O)cc(-c5ccc(O)cc5)oc34)c2)oc2cc(O)cc(O)c12` [AMENTOFLAVONE] yielded an IC50 of 1.54 µM.
`COc1ccc(-c2cc(=O)c3c(O)cc(O)c(-c4cc(-c5cc(=O)c6c(O)cc(OC)cc6o5)ccc4O)c3o2)cc1` [PODOCARPUSFLAVONE B] showed an IC50 of 4.21 µM.
`COc1cc(O)c2c(=O)cc(-c3ccc(OC)c(-c4c(OC)cc(O)c5c(=O)cc(-c6ccc(O)cc6)oc45)c3)oc2c1` gave an IC50 of over 10 µM.
For `COc1ccc(-c2cc(=O)c3c(O)cc(OC)c(-c4cc(-c5cc(=O)c6c(O)cc(O)cc6o5)ccc4OC)c3o2)cc1` [KAYAFLAVONE], the IC50 was over 10 µM.
`COc1ccc(-c2cc(=O)c3c(O)cc(OC)c(-c4cc(-c5cc(=O)c6c(O)cc(OC)cc6o5)ccc4O)c3o2)cc1` [HEVEAFLAVONE] showed an IC50 of over 10 µM.
Work on `COc1cc(O)c2c(=O)cc(-c3ccc(O)c(-c4c(O)cc(O)c5c(=O)cc(-c6ccc(O)cc6)oc45)c3)oc2c1` [SEQUOIAFLAVONE] yielded an IC50 of 1.4 µM.
Molecule `COc1ccc([C@@H]2CC(=O)c3c(cc(OC)c(C)c3O)O2)cc1-c1c(O)cc(O)c2c(=O)cc(-c3ccc(O)cc3)oc12` has an IC50 of 0.35 µM.
With `O=c1cc(-c2ccc(O)cc2)oc2c(-c3c(O)cc(O)c4c(=O)cc(-c5ccc(O)cc5)oc34)c(O)cc(O)c12` [CUPRESSUFLAVONE] the IC50 was over 10 µM.
`O=c1cc(-c2ccc(O)c(-c3c(O)cc4oc(-c5ccc(O)cc5)cc(=O)c4c3O)c2)oc2cc(O)cc(O)c12` [ROBUSTAFLAVONE] was tested, and the IC50 was over 10 µM.
